Data on one molecule can be found in PMC10794144, “A novel antibiotic class targeting the lipopolysaccharide transporter” (Nature, 2024).

In experiment [1] the test system is A. baumannii. As to the kind of experiment: MIC, broth microdilution in CAMHB supplemented with human serum, read at 100% growth inhibition. The class given is cell-based, Acinetobacter baumannii. To be noted: Acinetobacter baumannii, ACC00535; CAMHB + 20% HS; read-out: MIC. The procedure: MIC determinations were performed using the broth microdilution method and in line with CLSI guidelines M07 and M100 (refs. [37],[38]). Bacterial inocula were prepared by diluting a 0.5 McFarland suspension in CAMHB or lysogeny broth (LB) specifically for A. baylyi isolates. […] MIC values of all of the tested antibiotics were read as the lowest compound concentration inhibiting bacterial growth by naked eye or beyond which the OD600 ceased to decrease.
Background: Dilution methods test growth across graded concentrations, often in twofold steps.

Experiment [2] deals with A. baumannii. As to the kind of experiment: Bacterial phenotypic fingerprint profiling. The class given is cell-based, Acinetobacter baumannii. The conditions noted are these: random forest model. As for the experimental part:
Sample preparation and analysis was conducted as previously described[26] for A. baumannii, with the generated and analysed dataset consisting of three independent experiments, n = 3, as the only modification to the protocol.
For the random forest analysis data proximity analysis from 4x and 8x LOED are pooled and the number of datapoints are reduced by down sampling to be equal for all reference conditions the maximal projection of the analysis. b, In the right panel an out-of-bag validation of the random forest classification model is indicated for the reference compounds. […] The degree of frequency of matching prediction correspond to the length of the individual bar segment, where a longer segment represents a higher similarity. […] Source Data

Take `CN1C(=O)[C@H](CCCCN)NC(=O)[C@H](CCCN)NCc2cccnc2Sc2c(Cl)ccc(Cl)c2CNC(=O)[C@@H]1Cc1c[nH]c2ccccc12` [RO7075573]: the MIC in experiment [1] came out at 0.12 µg/mL. Further, in experiment [2], the “Similarity towards RO7202110” value was more than 70%.

A word on the MIC: it is the least concentration at which growth counts as inhibited.
